Patent US20230085307A1, “PYRIDAZINONE COMPOUND AND HERBICIDE” (NISSAN CHEMICAL CORPORATION, priority 2019, published 2023)

Columns and labels:
barnyard grass [1] = assay: Test Example 3: herbicidal effect by foliage application, Wagner pot (Table 18, symbol H); type: in vivo, barnyard grass (Echinochloa crus-galli)
How it was run: (§1)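 Plants were sown in alluvial soil held under 0.1–0.5 cm standing water and grown 14 days in a greenhouse at 25–30 °C. An emulsifiable formulation, water-diluted to the set dose, was then sprayed onto the foliage, and effects were scored three weeks later using previously defined criteria.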

wild oat [2] = assay: Test Example 4: herbicidal effect by soil treatment (Table 19, symbol I); type: in vivo, wild oat (Avena fatua); details: amount of applied herbicide 320 g/ha
How it was run: (§2)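 Applied as a water-diluted emulsion, the compound was sprayed onto soil covering newly sown seeds. Evaluation came three weeks after application, in a greenhouse held at 25° C. to 30° C.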

velvetleaf [3] = assay: Test Example 4: herbicidal effect by soil treatment (Table 19, symbol M); type: in vivo, velvetleaf (Abutilon theophrasti); details: amount of applied herbicide 320 g/ha
How it was run: as §2

velvetleaf [4] = assay: Test Example 5: herbicidal effect by foliage application, plastic box (Table 20, symbol M); type: in vivo, velvetleaf (Abutilon theophrasti); details: foliage application, 320 g/ha, three weeks after application
How it was run: (§3)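 Sow seeds spot-wise in sterilized diluvial soil; cover with ~1.5 cm soil. Grow 14 days in greenhouse, 25° C. to 30° C. Spray foliage with emulsion diluted to predetermined amount. Rate effect after 3 weeks.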

southern crabgrass [5] = assay: Test Example 4: herbicidal effect by soil treatment (Table 19, symbol F); type: in vivo, southern crabgrass (Digitaria ciliaris); details: amount of applied herbicide 320 g/ha
How it was run: as §2

persian speedwell [6] = assay: Test Example 5: herbicidal effect by foliage application, plastic box (Table 20, symbol R); type: in vivo, Persian speedwell (Veronica persica); details: foliage application, 320 g/ha, three weeks after application
How it was run: as §3

blackgrass [7] = assay: Test Example 4: herbicidal effect by soil treatment (Table 19, symbol J); type: in vivo, blackgrass (Alopecurus myosuroides); details: amount of applied herbicide 320 g/ha
How it was run: as §2

green foxtail [8] = assay: Test Example 4: herbicidal effect by soil treatment (Table 19, symbol G); type: in vivo, green foxtail (Setaria viridis); details: amount of applied herbicide 320 g/ha
How it was run: as §2

barnyard grass [9] = assay: Test Example 4: herbicidal effect by soil treatment (Table 19, symbol H); type: in vivo, barnyard grass (Echinochloa crus-galli); details: amount of applied herbicide 320 g/ha
How it was run: as §2

windgrass [10] = assay: Test Example 4: herbicidal effect by soil treatment (Table 19, symbol L); type: in vivo, windgrass (Apera spica-venti); details: amount of applied herbicide 320 g/ha
How it was run: as §2

wild oat [11] = assay: Test Example 5: herbicidal effect by foliage application, plastic box (Table 20, symbol I); type: in vivo, wild oat (Avena fatua); details: foliage application, 320 g/ha, three weeks after application
How it was run: as §3

windgrass [12] = assay: Test Example 5: herbicidal effect by foliage application, plastic box (Table 20, symbol L); type: in vivo, windgrass (Apera spica-venti); details: foliage application, 320 g/ha, three weeks after application
How it was run: as §3

redroot pigweed = assay: Test Example 4: herbicidal effect by soil treatment (Table 19, symbol N); type: in vivo, redroot pigweed (Amaranthus retroflexus); details: amount of applied herbicide 320 g/ha
How it was run: as §2

rice flat sedge = assay: Test Example 3: herbicidal effect by foliage application, Wagner pot (Table 18, symbol E); type: in vivo, rice flat sedge (Cyperus iria)
How it was run: as §1

lambsquarters [13] = assay: Test Example 4: herbicidal effect by soil treatment (Table 19, symbol O); type: in vivo, lambsquarters (Chenopodium album); details: amount of applied herbicide 320 g/ha
How it was run: as §2

barnyard grass [14] = assay: Test Example 5: herbicidal effect by foliage application, plastic box (Table 20, symbol H); type: in vivo, barnyard grass (Echinochloa crus-galli); details: foliage application, 320 g/ha, three weeks after application
How it was run: as §3

green foxtail [15] = assay: Test Example 5: herbicidal effect by foliage application, plastic box (Table 20, symbol G); type: in vivo, green foxtail (Setaria viridis); details: foliage application, 320 g/ha, three weeks after application
How it was run: as §3

Italian ryegrass [16] = assay: Test Example 4: herbicidal effect by soil treatment (Table 19, symbol K); type: in vivo, Italian ryegrass (Lolium multiflorum); details: amount of applied herbicide 320 g/ha
How it was run: as §2

southern crabgrass [17] = assay: Test Example 5: herbicidal effect by foliage application, plastic box (Table 20, symbol F); type: in vivo, southern crabgrass (Digitaria ciliaris); details: foliage application, 320 g/ha, three weeks after application
How it was run: as §3

blackgrass [18] = assay: Test Example 5: herbicidal effect by foliage application, plastic box (Table 20, symbol J); type: in vivo, blackgrass (Alopecurus myosuroides); details: foliage application, 320 g/ha, three weeks after application
How it was run: as §3

false cleavers = assay: Test Example 4: herbicidal effect by soil treatment (Table 19, symbol Q); type: in vivo, false cleavers (Galium spurium); details: amount of applied herbicide 320 g/ha
Source text: [Test Example 4] Herbicidal Effect Test by Soil Treatment
Sterilized diluvial soil was placed in a plastic box having a length of 21 cm, a width of 13 cm, and a depth of 7 cm. The seeds of each of southern crabgrass, green foxtail, barnyard grass, wild oat, blackgrass, Italian ryegrass, windgrass, velvetleaf, redroot pigweed, lambsquarters, chickweed, false cleavers, persian speedwell, corn, soybean, rice, wheat, beet, and rapeseed were sowed in a spot-like manner and covered with the soil having a thickness of about 1.5 cm. Subsequently, the emulsion agent of the compound of the present invention prepared according to Formulation Example 2 was diluted with water so as to achieve a predetermined herbicide amount, and the diluted emulsion agent was uniformly applied to the surface of the soil with a small-sized spray. The plastic box was placed in a greenhouse at 25° C. to 30° C. for growth of the plants. Three weeks after the herbicide application, the effect of the herbicide on each plant was evaluated according to the criteria of Test Example 1.

Chinese sprangletop = assay: Test Example 3: herbicidal effect by foliage application, Wagner pot (Table 18, symbol D); type: in vivo, chinese sprangletop (Leptochloa chinensis)
How it was run: as §1

Italian ryegrass [19] = assay: Test Example 5: herbicidal effect by foliage application, plastic box (Table 20, symbol K); type: in vivo, Italian ryegrass (Lolium multiflorum); details: foliage application, 320 g/ha, three weeks after application
How it was run: as §3

lambsquarters [20] = assay: Test Example 5: herbicidal effect by foliage application, plastic box (Table 20, symbol O); type: in vivo, lambsquarters (Chenopodium album); details: foliage application, 320 g/ha, three weeks after application
How it was run: as §3

chickweed = assay: Test Example 4: herbicidal effect by soil treatment (Table 19, symbol P); type: in vivo, common chickweed (Stellaria media); details: amount of applied herbicide 320 g/ha
How it was run: as §2

Japanese bulrush [21] = assay: Test Example 1: herbicidal activity, application before weed generation under submerged conditions (Table 16, symbol B); type: in vivo, Japanese bulrush (Schoenoplectus juncoides); details: 320 g/ha applied herbicide
How it was run: (§4)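 Alluvial soil was flooded to 4 cm depth, weed seeds were sown mixed and 2.5-leaf rice seedlings were transplanted. On sowing day, the compound's emulsion, diluted in water to a set dose, was applied to the water surface. Plants grew at 25–30 °C and were scored 0–5 after three weeks.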

oval-leafed pondweed [22] = assay: Test Example 2: herbicidal activity, application during weed generation under submerged conditions (Table 17, symbol C); type: in vivo, oval-leafed pondweed (Monochoria vaginalis); details: AAH 320 g/ha; application during weed generation, submerged conditions
How it was run: (§5)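 Wagner pot, alluvial soil, 4 cm flood; mixed sowing of all species; greenhouse 25° C.–30° C. Emulsifiable formulation, water-diluted to predetermined dose, applied to paddy water at 1–2 leaf stage. Effect rated at 3 wk using the earlier test's scoring criteria.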

oval-leafed pondweed [23] = assay: Test Example 1: herbicidal activity, application before weed generation under submerged conditions (Table 16, symbol C); type: in vivo, oval-leafed pondweed (Monochoria vaginalis); details: 320 g/ha applied herbicide
How it was run: as §4

late watergrass [24] = assay: Test Example 1: herbicidal activity, application before weed generation under submerged conditions (Table 16, symbol A); type: in vivo, late watergrass (Echinochloa oryzicola); details: 320 g/ha applied herbicide
How it was run: as §4

persian speedwell [25] = assay: Test Example 4: herbicidal effect by soil treatment (Table 19, symbol R); type: in vivo, Persian speedwell (Veronica persica); details: amount of applied herbicide 320 g/ha
How it was run: as §2

late watergrass [26] = assay: Test Example 2: herbicidal activity, application during weed generation under submerged conditions (Table 17, symbol A); type: in vivo, late watergrass (Echinochloa oryzicola); details: AAH 320 g/ha; application during weed generation, submerged conditions
How it was run: as §5

Japanese bulrush [27] = assay: Test Example 2: herbicidal activity, application during weed generation under submerged conditions (Table 17, symbol B); type: in vivo, Japanese bulrush (Schoenoplectus juncoides); details: AAH 320 g/ha; application during weed generation, submerged conditions
How it was run: as §5

[28] = amount of applied herbicide 320 g/ha

Cc1nn(C)c(=O)c(-c2c(-c3ccc(Cl)cc3)sc3cc(F)c(F)cc23)c1O [5-082]
herbicidal effect on barnyard grass (H) (barnyard grass [1]; 320 g/ha): 5 (Herbicidal rate of 90% or more (almost completely withered)) | I: wild oat, herbicidal effect grade (wild oat [2]): 0 (Herbicidal rate of 5% or less (almost no effect)) | M: velvetleaf, herbicidal effect grade (velvetleaf [3]): 0 (Herbicidal rate of 5% or less (almost no effect)) | herbicidal effect on velvetleaf (M) (velvetleaf [4]): 5 (Herbicidal rate of 90% or more (almost completely withered)) | F: southern crabgrass, herbicidal effect grade (southern crabgrass [5]): 0 (Herbicidal rate of 5% or less (almost no effect)) | herbicidal effect on persian speedwell (R) (persian speedwell [6]): 5 (Herbicidal rate of 90% or more (almost completely withered)) | J: blackgrass, herbicidal effect grade (blackgrass [7]): 0 (Herbicidal rate of 5% or less (almost no effect)) | G: green foxtail, herbicidal effect grade (green foxtail [8]): 1 (Herbicidal rate of 5% or more and less than 20%) | H: barnyard grass, herbicidal effect grade (barnyard grass [9]): 0 (Herbicidal rate of 5% or less (almost no effect)) | L: windgrass, herbicidal effect grade (windgrass [10]): 4 (Herbicidal rate of 70% or more and less than 90%) | herbicidal effect on wild oat (I) (wild oat [11]): 3 (Herbicidal rate of 40% or more and less than 70%) | herbicidal effect on windgrass (L) (windgrass [12]): 5 (Herbicidal rate of 90% or more (almost completely withered)) | N: redroot pigweed, herbicidal effect grade (redroot pigweed): 4 (Herbicidal rate of 70% or more and less than 90%) | herbicidal effect on rice flat sedge (E) (rice flat sedge; 320 g/ha): 4 (Herbicidal rate of 70% or more and less than 90%) | O: lambsquarters, herbicidal effect grade (lambsquarters [13]): 3 (Herbicidal rate of 40% or more and less than 70%) | herbicidal effect on barnyard grass (H) (barnyard grass [14]): 4 (Herbicidal rate of 70% or more and less than 90%) | herbicidal effect on green foxtail (G) (green foxtail [15]): 3 (Herbicidal rate of 40% or more and less than 70%) | K: Italian ryegrass, herbicidal effect grade (Italian ryegrass [16]): 4 (Herbicidal rate of 70% or more and less than 90%) | herbicidal effect on southern crabgrass (F) (southern crabgrass [17]): 3 (Herbicidal rate of 40% or more and less than 70%) | herbicidal effect on blackgrass (J) (blackgrass [18]): 3 (Herbicidal rate of 40% or more and less than 70%) | Q: false cleavers, herbicidal effect grade (false cleavers): 3 (Herbicidal rate of 40% or more and less than 70%) | herbicidal effect on Chinese sprangletop (D) (Chinese sprangletop; 320 g/ha): 4 (Herbicidal rate of 70% or more and less than 90%) | herbicidal effect on Italian ryegrass (K) (Italian ryegrass [19]): 5 (Herbicidal rate of 90% or more (almost completely withered)) | herbicidal effect on lambsquarters (O) (lambsquarters [20]): 5 (Herbicidal rate of 90% or more (almost completely withered))

Cc1nn(C)c(=O)c(-c2c(-c3ccc(F)c(Cl)c3)sc3ccc(F)cc23)c1O [2-352]
herbicidal effect on H: barnyard grass (barnyard grass [1]; [28]): 5 (Herbicidal rate of 90% or more (almost completely withered)) | herbicidal effect, I: wild oat (wild oat [2]): 0 (Herbicidal rate of 5% or less (almost no effect)) | herbicidal effect, P: chickweed (chickweed): 3 (Herbicidal rate of 40% or more and less than 70%) | herbicidal effect, M: velvetleaf (velvetleaf [3]): 3 (Herbicidal rate of 40% or more and less than 70%) | Herbicidal effect on B: Japanese bulrush (grade 0-5) (Japanese bulrush [21]): 2 (Herbicidal rate of 20% or more and less than 40%) | herbicidal effect, F: southern crabgrass (southern crabgrass [5]): 2 (Herbicidal rate of 20% or more and less than 40%) | herbicidal effect rating, C: oval-leafed pondweed (oval-leafed pondweed [22]): 0 (Herbicidal rate of 5% or less (almost no effect)) | herbicidal effect, J: blackgrass (blackgrass [7]): 0 (Herbicidal rate of 5% or less (almost no effect)) | herbicidal effect, G: green foxtail (green foxtail [8]): 4 (Herbicidal rate of 70% or more and less than 90%) | Herbicidal effect on C: oval-leafed pondweed (grade 0-5) (oval-leafed pondweed [23]): 2 (Herbicidal rate of 20% or more and less than 40%) | Herbicidal effect on A: late watergrass (grade 0-5) (late watergrass [24]): 3 (Herbicidal rate of 40% or more and less than 70%) | herbicidal effect, H: barnyard grass (barnyard grass [9]): 3 (Herbicidal rate of 40% or more and less than 70%) | herbicidal effect, L: windgrass (windgrass [10]): 0 (Herbicidal rate of 5% or less (almost no effect)) | herbicidal effect, R: persian speedwell (persian speedwell [25]): 4 (Herbicidal rate of 70% or more and less than 90%) | herbicidal effect, N: redroot pigweed (redroot pigweed): 5 (Herbicidal rate of 90% or more (almost completely withered)) | herbicidal effect on E: rice flat sedge (rice flat sedge; [28]): 5 (Herbicidal rate of 90% or more (almost completely withered)) | herbicidal effect rating, A: late watergrass (late watergrass [26]): 0 (Herbicidal rate of 5% or less (almost no effect)) | herbicidal effect, O: lambsquarters (lambsquarters [13]): 4 (Herbicidal rate of 70% or more and less than 90%) | herbicidal effect, K: Italian ryegrass (Italian ryegrass [16]): 4 (Herbicidal rate of 70% or more and less than 90%) | herbicidal effect rating, B: Japanese bulrush (Japanese bulrush [27]): 2 (Herbicidal rate of 20% or more and less than 40%) | herbicidal effect on D: Chinese sprangletop (Chinese sprangletop; [28]): 5 (Herbicidal rate of 90% or more (almost completely withered))
